In patent publication US20250064886A1, “CARDIOVASCULAR AND CEREBROVASCULAR DRUG AND USE THEREOF” (HANGZHOU ADAMERCK PHARMLABS INC., priority 2021, published 2025):
Several values for one entry are separate records, joined by “and”; a condition that tells them apart may be missing. Equal entries are not always repeated.

Legend:
[1] = tested on: tryptase; assay: Sensitization risk: tryptase expression (OD, BAPNA) in zebrafish (Example 2); assay type: in vivo
Method: Experimental method: 2 dpf wild type AB strain zebrafish were randomly selected and placed in a 24-well plate, with each group 6 parallel wells and 10 zebrafish per well. The zebrafish were injected intravenously with samples at a dose of 500 ng/tail and the positive control “C48/80” at a concentration of 1.5 μg/mL, while normal control group was set up. Each well has a capacity of 1 mL.
All experimental groups were given BAPNA by dissolving it in the water. After treatment at 28° C. for 1 day, the liquid was transferred to 96-well plates with 200 μL/well, and the relative absorbance values (OD values) of the expression levels of tryptase in each experimental group were detected using an microplate reader, and the results of the statistical analysis of the OD values were used to evaluate the risk of sensitization by sample. Statistical results were expressed as mean±SE.
Statistical analysis was performed using SPSS software, and p<0.05 indicates significant differences.

[2] = tested on: lipid ROS levels in Erastin-induced nerve cells; assay: Lipid ROS levels (C11-BODIPY probe) in Erastin-induced nerve cells (Example 8); assay type: cell-based, rat; conditions: Erastin 50 μM
Method: Experimental method: Primary neuron cells were incubated in a medium containing Erastin (final concentration of 50 μM) for 24 hours, and then incubated in a medium containing different concentrations of the test drug and Erastin (final concentration of 50 μM) for another 24 hours. After incubation, Real time PCR was used to detect mRNA expression of GPX4 in each group of cells, CCK8 assay was used to detect cell viability in each group of cells, C11-BODIPY probe method was used to detect intracellular lipid ROS levels in each group of cells, and PGSK probe method was used to detect iron content in cells.
The experimental data were expressed in means±SD, and statistical differences between groups were determined using one-way ANOVA and Tukey's test, with p-values less than 0.05 considered significant.
After incubation, the C11-BODIPY probe method was used to detect the lipid ROS levels in each group of cells. The results were presented as Mean±SD. Compared with the control group, ***p<0.0001; compared with the model group, #p<0.05, ##p<0.01.

CC(=O)N[C@H](CSCC1OC2OC3C(CSC[C@@H](NC(C)=O)C(=O)[O-])OC(OC4C(CSC[C@@H](NC(C)=O)C(=O)[O-])OC(OC5C(CSC[C@@H](NC(C)=O)C(=O)[O-])OC(OC6C(CSC[C@@H](NC(C)=O)C(=O)[O-])OC(OC7C(CSC[C@@H](NC(C)=O)C(=O)[O-])OC(OC8C(CSC[C@@H](NC(C)=O)C(=O)[O-])OC(OC9C(CSC[C@@H](NC(C)=O)C(=O)[O-])OC(OC1C(O)C2O)C(O)C9O)C(O)C8O)C(O)C7O)C(O)C6O)C(O)C5O)C(O)C4O)C(O)C3O)C(=O)[O-].[Na+].[Na+].[Na+].[Na+].[Na+].[Na+].[Na+].[Na+] (some centres unmarked) [Compound (1)]
Sensitization risk, in words ([1]; 500 ng/tail): no or substantially no sensitization risk | Relative sensitization risk (compared with positive control group) ([1]; 500 ng/tail intravenous): 13% | Sensitization risk (%) ([1]; 500 ng/tail intravenous): 11.1% | Absorbance value (OD value), parallel wells 1-6 ([1]; 500 ng/tail intravenous, 28° C. 1 day, single wells): 0.05725 and 0.05895 and 0.06195 and 0.06575 and 0.05845 and 0.05605 | Absorbance value (OD value), mean ([1]; 500 ng/tail intravenous, mean of 6 wells): 0.060 | Lipid ROS levels (%) ([2]; 1 μM, control = 100, Mean±SD): 150.18 ± 6.05^ % | Lipid ROS levels (%) ([2]; 2.5 μM): 142.58 ± 3.01^ % | Lipid ROS levels (%) ([2]; 5 μM): 137.9 ± 6.72% | Lipid ROS levels (%) ([2]; 10 μM): 132.33 ± 6.57^## % | Lipid ROS levels (%) ([2]; 20 μM): 121.82 ± 5.9^## % | Lipid ROS levels (%) ([2]; 40 μM): 114.13 ± 8.82^## %
